Experimental data reported in patent publication US20250120924A1, “COMPOSITIONS OF TAURINE AND MALIC ACID AND METHODS OF MAKING THE COMPOSITIONS” (NutriScience Innovations LLC, priority 2023, published 2025).

System: Wild-type nematodes
Experiment: Nematode lifespan/survival in microfluidic chips
Format: in vivo
Conditions: versus control, FIG. 4
Procedure: EXAMPLE 8—Animal Studies: A nematode animal model was used to evaluate lifespan/survival and energy/activity. Wild-type nematodes were loaded into microfluidic chips and were fed […] E. coli OP50 in NGM buffer food source. The methods have been previously described. Nematode lifespan was measured by survival at standard 18 days, while nematode activity was measured at an optimum 15 days using a visual score. Dosing of 2:1 taurine to malic acid molar ratio composition (composition #4, Example 1) was made using the methodology described previously was at 200 micrograms/ml/day, with the solid composition being dissolved in the aqueous feed. This is equivalent to a human dose of 5 grams per day for these animals. The 5 gram per day human dose equivalent represents a dose of 3.26 grams of taurine and 1.74 grams of malic acid (2:1 molar ratio). The results were compared with taurine alone (human equivalent dose 3.26 grams), and malic acid alone (1.74 grams malic acid).
Eighteen days is the typical survival time for nematodes. Eighteen days may be considered “old-age” for these animals. […] This unexpected synergistic effect has not been previously observed. […] Specific energy/activity levels of the neamtodes was measured at an optimum 15 days of life (which may be considered “middle-age”).

Row | Compound | nematode survival at 18 days (malic acid alone, human equivalent dose 1.74 grams) | nematode survival at 18 days (taurine alone, human equivalent dose 3.26 grams)
1 | O=C(O)CC(O)C(=O)O (centres unmarked) [malic acid] | did not improve survival times versus control | –
2 | NCCS(=O)(=O)O [taurine, 2-aminoethanesulfonic acid] | – | did not improve survival times versus control
